Reference: ChEMBL document CHEMBL1154311, “Isolation of the protein tyrosine phosphatase 1B inhibitory metabolite from the marine-derived fungus Cosmospora sp. SF-5060” (Bioorg Med Chem Lett, 2009)

How the values were obtained:
[1] = molecular target: T1, Tyrosine-protein phosphatase non-receptor type 1 (Homo sapiens, UniProt P18031); experiment: Inhibition of PTP1B mediated pNPP hydrolysis
T1 sequence (P18031 whole entry): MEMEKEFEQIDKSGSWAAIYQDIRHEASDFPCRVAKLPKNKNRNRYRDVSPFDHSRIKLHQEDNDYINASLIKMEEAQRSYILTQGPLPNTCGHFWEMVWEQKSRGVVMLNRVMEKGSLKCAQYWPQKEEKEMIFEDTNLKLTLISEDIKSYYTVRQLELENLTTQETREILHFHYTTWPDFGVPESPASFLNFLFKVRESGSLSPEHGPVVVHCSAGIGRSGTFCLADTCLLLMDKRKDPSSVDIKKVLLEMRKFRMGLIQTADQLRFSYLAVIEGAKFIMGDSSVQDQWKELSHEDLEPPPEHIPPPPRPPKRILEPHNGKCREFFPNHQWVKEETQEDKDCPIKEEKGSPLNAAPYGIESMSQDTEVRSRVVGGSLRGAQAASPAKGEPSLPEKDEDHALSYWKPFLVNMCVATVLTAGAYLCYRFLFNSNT

[2] = molecular target: T2, Tyrosine-protein phosphatase non-receptor type 1 (Homo sapiens) (UniProt P18031); experiment: Inhibition of PTP1B mediated pNPP hydrolysis at 178 uM
T2 sequence (whole entry): T1 sequence (P18031 whole entry)

[3] = molecular target: Receptor-type tyrosine-protein phosphatase F (Homo sapiens, UniProt P10586); experiment: Inhibition of LAR
[4] = molecular target: T3, Tyrosine-protein phosphatase non-receptor type 11 (Homo sapiens, UniProt Q06124); experiment: Inhibition of SHP-2
T3 sequence (Q06124 whole entry): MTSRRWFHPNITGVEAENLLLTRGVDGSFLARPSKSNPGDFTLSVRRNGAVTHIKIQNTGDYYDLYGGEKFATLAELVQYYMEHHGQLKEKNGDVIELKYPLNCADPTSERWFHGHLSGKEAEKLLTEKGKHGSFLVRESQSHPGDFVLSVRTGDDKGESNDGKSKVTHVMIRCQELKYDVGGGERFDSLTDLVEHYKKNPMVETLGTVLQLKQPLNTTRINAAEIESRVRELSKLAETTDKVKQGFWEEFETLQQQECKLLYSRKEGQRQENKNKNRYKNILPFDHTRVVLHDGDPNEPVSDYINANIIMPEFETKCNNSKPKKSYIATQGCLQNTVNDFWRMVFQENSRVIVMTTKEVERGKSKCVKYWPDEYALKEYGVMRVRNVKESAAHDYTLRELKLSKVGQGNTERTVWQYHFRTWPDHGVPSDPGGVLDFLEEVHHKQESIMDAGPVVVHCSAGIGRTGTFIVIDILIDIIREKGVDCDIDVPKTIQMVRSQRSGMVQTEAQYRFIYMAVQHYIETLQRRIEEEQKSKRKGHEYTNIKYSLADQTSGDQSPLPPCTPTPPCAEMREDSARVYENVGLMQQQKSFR

[5] = molecular target: T4, Receptor-type tyrosine-protein phosphatase C (Homo sapiens, UniProt P08575); experiment: Inhibition of CD45
T4 sequence (P08575 whole entry): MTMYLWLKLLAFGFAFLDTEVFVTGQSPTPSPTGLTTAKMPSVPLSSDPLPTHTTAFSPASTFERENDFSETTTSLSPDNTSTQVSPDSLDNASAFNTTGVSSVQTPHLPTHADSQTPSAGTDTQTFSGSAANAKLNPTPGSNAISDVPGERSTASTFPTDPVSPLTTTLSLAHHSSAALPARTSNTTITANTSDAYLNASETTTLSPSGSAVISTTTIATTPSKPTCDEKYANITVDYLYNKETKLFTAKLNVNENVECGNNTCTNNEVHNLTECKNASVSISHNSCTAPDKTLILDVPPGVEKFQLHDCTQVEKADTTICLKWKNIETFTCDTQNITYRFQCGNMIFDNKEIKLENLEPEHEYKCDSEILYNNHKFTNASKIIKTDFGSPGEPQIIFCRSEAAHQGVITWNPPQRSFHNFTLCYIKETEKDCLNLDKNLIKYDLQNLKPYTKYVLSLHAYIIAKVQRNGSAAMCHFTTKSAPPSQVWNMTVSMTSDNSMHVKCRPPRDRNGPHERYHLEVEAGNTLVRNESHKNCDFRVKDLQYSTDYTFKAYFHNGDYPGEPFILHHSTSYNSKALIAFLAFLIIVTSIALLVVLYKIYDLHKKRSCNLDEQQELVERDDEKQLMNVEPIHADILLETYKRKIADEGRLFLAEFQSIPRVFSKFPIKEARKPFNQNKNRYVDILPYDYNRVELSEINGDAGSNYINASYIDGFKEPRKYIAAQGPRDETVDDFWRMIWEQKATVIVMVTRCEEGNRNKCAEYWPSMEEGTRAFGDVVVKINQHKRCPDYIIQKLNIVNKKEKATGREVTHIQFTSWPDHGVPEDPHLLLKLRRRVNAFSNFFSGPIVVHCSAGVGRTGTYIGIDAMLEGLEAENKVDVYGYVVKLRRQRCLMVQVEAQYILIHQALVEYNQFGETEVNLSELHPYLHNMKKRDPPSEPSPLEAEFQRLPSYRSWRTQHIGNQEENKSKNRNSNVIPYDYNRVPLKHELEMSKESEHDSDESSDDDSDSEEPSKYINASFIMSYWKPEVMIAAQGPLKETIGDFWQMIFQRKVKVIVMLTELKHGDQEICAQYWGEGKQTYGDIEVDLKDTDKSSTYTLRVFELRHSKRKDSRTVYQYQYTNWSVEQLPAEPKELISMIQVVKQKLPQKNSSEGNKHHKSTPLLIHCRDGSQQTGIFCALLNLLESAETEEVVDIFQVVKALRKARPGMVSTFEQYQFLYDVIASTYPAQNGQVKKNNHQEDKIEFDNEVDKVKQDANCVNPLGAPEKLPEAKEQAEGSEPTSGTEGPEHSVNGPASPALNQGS

[6] = molecular target: T5, Tyrosine-protein phosphatase non-receptor type 2 (Homo sapiens, UniProt P17706); experiment: Inhibition of TCPTP
T5 sequence (P17706 whole entry): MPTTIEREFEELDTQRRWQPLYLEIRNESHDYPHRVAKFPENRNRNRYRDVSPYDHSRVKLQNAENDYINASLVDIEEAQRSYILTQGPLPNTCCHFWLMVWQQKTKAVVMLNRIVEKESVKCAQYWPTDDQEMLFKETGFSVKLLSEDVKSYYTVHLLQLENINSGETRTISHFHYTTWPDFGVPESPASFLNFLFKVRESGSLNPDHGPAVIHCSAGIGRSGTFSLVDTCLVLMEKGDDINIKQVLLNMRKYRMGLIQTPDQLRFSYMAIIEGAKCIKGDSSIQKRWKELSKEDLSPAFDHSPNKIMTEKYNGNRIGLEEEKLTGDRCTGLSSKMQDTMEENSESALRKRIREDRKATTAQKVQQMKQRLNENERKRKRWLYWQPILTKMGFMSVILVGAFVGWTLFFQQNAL

[7] = molecular target: T1, Tyrosine-protein phosphatase non-receptor type 1; experiment: Competitive inhibition of PTP1B mediated pNPP hydrolysis by Lineweaver-Burke plot analysis

Sequence of Receptor-type tyrosine-protein phosphatase F (P10586 whole entry): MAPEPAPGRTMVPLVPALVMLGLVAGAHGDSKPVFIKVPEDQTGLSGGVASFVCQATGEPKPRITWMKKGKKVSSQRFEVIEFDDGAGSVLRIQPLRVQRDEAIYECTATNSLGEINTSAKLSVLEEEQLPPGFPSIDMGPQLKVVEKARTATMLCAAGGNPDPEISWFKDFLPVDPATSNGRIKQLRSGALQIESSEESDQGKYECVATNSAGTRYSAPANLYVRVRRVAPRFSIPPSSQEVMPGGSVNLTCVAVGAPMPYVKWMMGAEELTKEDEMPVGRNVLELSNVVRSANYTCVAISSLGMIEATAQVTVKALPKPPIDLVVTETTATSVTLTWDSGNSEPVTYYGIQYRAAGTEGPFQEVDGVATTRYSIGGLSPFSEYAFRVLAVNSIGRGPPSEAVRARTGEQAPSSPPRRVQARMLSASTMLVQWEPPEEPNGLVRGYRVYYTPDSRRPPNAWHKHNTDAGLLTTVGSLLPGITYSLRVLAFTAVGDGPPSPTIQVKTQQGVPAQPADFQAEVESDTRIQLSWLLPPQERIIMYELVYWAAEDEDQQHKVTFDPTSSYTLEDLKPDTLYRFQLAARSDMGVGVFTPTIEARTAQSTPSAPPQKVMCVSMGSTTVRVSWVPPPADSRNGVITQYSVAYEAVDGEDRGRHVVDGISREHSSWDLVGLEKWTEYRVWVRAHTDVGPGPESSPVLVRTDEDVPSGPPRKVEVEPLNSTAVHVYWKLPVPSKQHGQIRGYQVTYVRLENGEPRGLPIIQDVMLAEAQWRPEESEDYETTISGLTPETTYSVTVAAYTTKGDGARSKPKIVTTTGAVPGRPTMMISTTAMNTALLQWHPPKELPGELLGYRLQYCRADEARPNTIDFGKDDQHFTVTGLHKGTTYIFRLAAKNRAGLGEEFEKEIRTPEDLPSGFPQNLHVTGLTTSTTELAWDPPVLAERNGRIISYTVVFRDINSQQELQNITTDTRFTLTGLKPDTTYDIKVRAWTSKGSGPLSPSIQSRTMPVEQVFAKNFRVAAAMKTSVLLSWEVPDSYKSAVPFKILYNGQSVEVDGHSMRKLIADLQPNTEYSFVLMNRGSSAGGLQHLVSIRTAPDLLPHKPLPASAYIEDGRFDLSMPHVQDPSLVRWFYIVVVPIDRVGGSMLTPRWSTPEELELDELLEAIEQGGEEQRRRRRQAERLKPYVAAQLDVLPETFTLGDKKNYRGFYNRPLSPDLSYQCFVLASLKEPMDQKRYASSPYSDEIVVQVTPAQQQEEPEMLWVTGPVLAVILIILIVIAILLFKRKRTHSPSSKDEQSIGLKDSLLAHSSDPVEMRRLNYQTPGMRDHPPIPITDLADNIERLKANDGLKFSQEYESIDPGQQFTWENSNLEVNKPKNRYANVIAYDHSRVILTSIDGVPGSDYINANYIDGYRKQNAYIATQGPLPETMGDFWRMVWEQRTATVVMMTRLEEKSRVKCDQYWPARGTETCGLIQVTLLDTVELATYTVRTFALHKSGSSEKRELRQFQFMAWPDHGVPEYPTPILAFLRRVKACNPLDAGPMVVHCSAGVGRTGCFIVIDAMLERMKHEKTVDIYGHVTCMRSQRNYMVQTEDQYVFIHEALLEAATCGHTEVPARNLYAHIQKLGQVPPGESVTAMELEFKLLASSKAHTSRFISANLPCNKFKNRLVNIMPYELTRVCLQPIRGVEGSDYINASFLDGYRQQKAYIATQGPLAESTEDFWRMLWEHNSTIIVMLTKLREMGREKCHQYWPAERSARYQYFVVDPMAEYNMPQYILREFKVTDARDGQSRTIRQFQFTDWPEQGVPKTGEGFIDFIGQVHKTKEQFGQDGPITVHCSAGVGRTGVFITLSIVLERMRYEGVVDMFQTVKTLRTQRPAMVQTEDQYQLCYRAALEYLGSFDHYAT

IC50 [1]	IC50 ([1]; read-out: IC50) [nM]	Structure (SMILES)	further results
Dose-dependent effect	590	CCCCCCCCCCCCCCCc1cc(O[C@@H]2O[C@H](CO)[C@@H](O)[C@H](O)[C@H]2O)cc(O)c1C(=O)O	
	17000	CCCCCCCCCCCCCCCc1cc(O[C@@H]2O[C@H](CO)[C@@H](O)[C@H](O)[C@H]2O)cc(O)c1C(=O)Oc1cc(C)c(C(=O)OC)c(O)c1	
Dose-dependent effect	190	CCCCCCCCCCCCCCCc1cc(O[C@@H]2O[C@H](CO)[C@@H](O)[C@H](O)[C@H]2O)cc(O)c1C(=O)Oc1cc(C)c(C(=O)O)c(O)c1 [AQUASTATIN A]	IC50 [3]: > 44000 nM; IC50 [4]: > 44000 nM; IC50 [5]: > 44000 nM; IC50 [6]: 510 nM; Ki [7]: 100 nM

Further lines, the compound ahead of its results:

Structure (SMILES)	IC50 [1]	IC50 ([1]; read-out: IC50) [nM]	further results
Cc1cc(O)cc(O)c1C(=O)O			inhibition [2]: 45%
CCCCCCCCCCCCCCCc1cc(O)cc(O)c1C(=O)Oc1cc(C)c(C(=O)O)c(O)c1		220	
